Reference: paper PMC10327353 (Breast Cancer Research : BCR, 2023)

Assay: Phase 1 study: safety and tolerability
Format: in vivo
Procedure: The maximum tolerated dose (MTD) of DZD1516 was defined based on safety data and the Bayesian optimal interval (BOIN) design (Additional file 1). The definition of DLT is provided in Additional file 1.
The AE grading was assessed according to the NCI-Common Terminology Criteria for Adverse Events (CTCAE) (version 5.0) and was monitored until 28 days after the last dose.
Eligible patients received single oral dosing of DZD1516 on Cycle 0 Day 1 (C0D1), followed by a 7-day washout. Twice daily oral dosing (bid) of DZD1516 was commenced from C1D1 in a continuous 21-day cycle until disease progression, unacceptable toxicity, or withdrawal of consent. All doses were taken under fed conditions (within 30 minutes after a meal).
Planned dosing consisted of 25, 50, 100, 200, 300, and 400 mg. Each dose escalation cohort will comprise a minimum of three and a maximum of six evaluable patients (except only one patient in the starting dose cohort). The maximum tolerated dose of DZD1516 was defined according to safety data and the Bayesian optimal interval (BOIN) design. Dose escalation/de-escalation rule with target toxicity rate for the MTD is 0.30 with interval of (0.20, 0.33).
DLTs were any adverse event (AE) not clearly attributable to the patient’s disease, including ≥ grade 4 hematological toxicities present for ≥ 4 days, grade 3 thrombocytopenia with bleeding, or grade 4 thrombocytopenia lasting for > 5 days, ≥ grade 3 non-hematological toxicities that is dose-limiting in the judgment of the investigators. Any other toxicity that is greater than that at baseline, is clinically significant or unacceptable, and is judged to be a DLT by the SRC. Exceptions included alopecia of any grade and isolated grade 3 laboratory change without clinical sequelae or clinical significance.
Safety evaluations were conducted at screening, on Day 1, 8, and 15 of Cycle 1, on Day 1 of each subsequent treatment cycle, at the end-of-treatment visit, and clinically indicated. Safety assessments included clinical laboratory measurements (hematology, chemistry, coagulation, and urinalysis), electrocardiogram (ECG), Echocardiogram/MUGA scan, ECOG performance status, vital signs, and physical examinations.

COc1cc(O[C@H]2CCN(C)CC2(F)F)c2c(Nc3ccc(Oc4ccn5ncnc5c4)c(C)c3)ncnc2c1 [DZD1516]
Headache, ≥ Grade 3 (200 mg (N = 5)): 0 (0.0) n (%) | Hemoglobin decreased, Any Grade (200 mg (N = 5)): 3 (60.0) n (%) | Hemoglobin decreased, ≥ Grade 3 (200 mg (N = 5)): 0 (0.0) n (%) | Investigations, Any Grade (200 mg (N = 5)): 4 (80.0) n (%) | Investigations, ≥ Grade 3 (200 mg (N = 5)): 1 (20.0) n (%) | Lipase increased, Any Grade (200 mg (N = 5)): 1 (20.0) n (%) | Lipase increased, ≥ Grade 3 (200 mg (N = 5)): 0 (0.0) n (%) | Malaise, Any Grade (200 mg (N = 5)): 1 (20.0) n (%) | Malaise, ≥ Grade 3 (200 mg (N = 5)): 0 (0.0) n (%) | Metabolism and nutrition disorders, Any Grade (200 mg (N = 5)): 3 (60.0) n (%) | Metabolism and nutrition disorders, ≥ Grade 3 (200 mg (N = 5)): 0 (0.0) n (%) | Musculoskeletal and connective tissue disorders, Any Grade (200 mg (N = 5)): 0 (0.0) n (%) | Musculoskeletal and connective tissue disorders, ≥ Grade 3 (200 mg (N = 5)): 0 (0.0) n (%) | Nausea, Any Grade (200 mg (N = 5)): 1 (20.0) n (%) | Nausea, ≥ Grade 3 (200 mg (N = 5)): 0 (0.0) n (%) | Nervous system disorders, Any Grade (200 mg (N = 5)): 2 (40.0) n (%) | Nervous system disorders, ≥ Grade 3 (200 mg (N = 5)): 0 (0.0) n (%) | Participants with any TEAE, Any Grade (200 mg (N = 5)): 5 (100.0) n (%) | Participants with any TEAE, ≥ Grade 3 (200 mg (N = 5)): 1 (20.0) n (%) | Platelet count decreased, Any Grade (200 mg (N = 5)): 1 (20.0) n (%) | Platelet count decreased, ≥ Grade 3 (200 mg (N = 5)): 0 (0.0) n (%) | Proteinuria, Any Grade (200 mg (N = 5)): 2 (40.0) n (%) | Proteinuria, ≥ Grade 3 (200 mg (N = 5)): 0 (0.0) n (%) | Renal and urinary disorders, Any Grade (200 mg (N = 5)): 2 (40.0) n (%) | Renal and urinary disorders, ≥ Grade 3 (200 mg (N = 5)): 0 (0.0) n (%) | Subjects with any TEAE (200 mg (N = 5)): 5 (100.0) n (%) | Subjects with any drug-related TEAE (200 mg (N = 5)): 5 (100.0) n (%) | Vomiting, Any Grade (200 mg (N = 5)): 3 (60.0) n (%) | Vomiting, ≥ Grade 3 (200 mg (N = 5)): 0 (0.0) n (%) | White blood cell count decreased, Any Grade (200 mg (N = 5)): 0 (0.0) n (%) | White blood cell count decreased, ≥ Grade 3 (200 mg (N = 5)): 0 (0.0) n (%) | Alanine aminotransferase increased, Any Grade (250 mg (N = 5)): 1 (20.0) n (%) | Alanine aminotransferase increased, ≥ Grade 3 (250 mg (N = 5)): 0 (0.0) n (%) | Anemia, Any Grade (250 mg (N = 5)): 1 (20.0) n (%) | Anemia, ≥ Grade 3 (250 mg (N = 5)): 0 (0.0) n (%) | Any TEAE: Grade 3 (250 mg (N = 5)): 1 (20.0) n (%) | Any TEAE: Leading to death (250 mg (N = 5)): 0 (0.0) n (%) | Any TEAE: Leading to dose reduction (250 mg (N = 5)): 0 (0.0) n (%) | Any TEAE: Leading to treatment discontinuation (250 mg (N = 5)): 0 (0.0) n (%) | Any TEAE: Leading to treatment interruption (250 mg (N = 5)): 1 (20.0) n (%) | Any TEAE: SAE (250 mg (N = 5)): 1 (20.0) n (%) | Aspartate aminotransferase increased, Any Grade (250 mg (N = 5)): 2 (40.0) n (%) | Aspartate aminotransferase increased, ≥ Grade 3 (250 mg (N = 5)): 0 (0.0) n (%) | Blood and lymphatic system disorders, Any Grade (250 mg (N = 5)): 1 (20.0) n (%) | Blood and lymphatic system disorders, ≥ Grade 3 (250 mg (N = 5)): 0 (0.0) n (%) | Blood bilirubin increased, Any Grade (250 mg (N = 5)): 1 (20.0) n (%) | Blood bilirubin increased, ≥ Grade 3 (250 mg (N = 5)): 0 (0.0) n (%) | Cardiac disorders, Any Grade (250 mg (N = 5)): 2 (40.0) n (%) | Cardiac disorders, ≥ Grade 3 (250 mg (N = 5)): 0 (0.0) n (%) | Constipation, Any Grade (250 mg (N = 5)): 0 (0.0) n (%) | Constipation, ≥ Grade 3 (250 mg (N = 5)): 0 (0.0) n (%) | Decreased appetite, Any Grade (250 mg (N = 5)): 0 (0.0) n (%) | Decreased appetite, ≥ Grade 3 (250 mg (N = 5)): 0 (0.0) n (%) | Dizziness, Any Grade (250 mg (N = 5)): 1 (20.0) n (%) | Dizziness, ≥ Grade 3 (250 mg (N = 5)): 0 (0.0) n (%) | Drug-related TEAE: Grade 3 (250 mg (N = 5)): 0 (0.0) n (%) | Drug-related TEAE: Leading to death (250 mg (N = 5)): 0 (0.0) n (%) | Drug-related TEAE: Leading to dose reduction (250 mg (N = 5)): 0 (0.0) n (%) | Drug-related TEAE: Leading to treatment discontinuation (250 mg (N = 5)): 0 (0.0) n (%) | Drug-related TEAE: Leading to treatment interruption (250 mg (N = 5)): 0 (0.0) n (%) | Drug-related TEAE: SAE (250 mg (N = 5)): 0 (0.0) n (%) | Fatigue, Any Grade (250 mg (N = 5)): 1 (20.0) n (%) | Fatigue, ≥ Grade 3 (250 mg (N = 5)): 0 (0.0) n (%) | Gastrointestinal disorders, Any Grade (250 mg (N = 5)): 1 (20.0) n (%) | Gastrointestinal disorders, ≥ Grade 3 (250 mg (N = 5)): 1 (20.0) n (%) | General disorders and administration site conditions, Any Grade (250 mg (N = 5)): 2 (40.0) n (%) | General disorders and administration site conditions, ≥ Grade 3 (250 mg (N = 5)): 0 (0.0) n (%) | Headache, Any Grade (250 mg (N = 5)): 2 (40.0) n (%) | Headache, ≥ Grade 3 (250 mg (N = 5)): 0 (0.0) n (%) | Hemoglobin decreased, Any Grade (250 mg (N = 5)): 2 (40.0) n (%) | Hemoglobin decreased, ≥ Grade 3 (250 mg (N = 5)): 0 (0.0) n (%) | Investigations, Any Grade (250 mg (N = 5)): 2 (40.0) n (%) | Investigations, ≥ Grade 3 (250 mg (N = 5)): 0 (0.0) n (%) | Lipase increased, Any Grade (250 mg (N = 5)): 0 (0.0) n (%) | Lipase increased, ≥ Grade 3 (250 mg (N = 5)): 0 (0.0) n (%) | Malaise, Any Grade (250 mg (N = 5)): 1 (20.0) n (%) | Malaise, ≥ Grade 3 (250 mg (N = 5)): 0 (0.0) n (%) | Metabolism and nutrition disorders, Any Grade (250 mg (N = 5)): 1 (20.0) n (%) | Metabolism and nutrition disorders, ≥ Grade 3 (250 mg (N = 5)): 0 (0.0) n (%) | Musculoskeletal and connective tissue disorders, Any Grade (250 mg (N = 5)): 3 (60.0) n (%) | Musculoskeletal and connective tissue disorders, ≥ Grade 3 (250 mg (N = 5)): 1 (20.0) n (%) | Nausea, Any Grade (250 mg (N = 5)): 1 (20.0) n (%) | Nausea, ≥ Grade 3 (250 mg (N = 5)): 0 (0.0) n (%) | Nervous system disorders, Any Grade (250 mg (N = 5)): 4 (80.0) n (%) | Nervous system disorders, ≥ Grade 3 (250 mg (N = 5)): 0 (0.0) n (%) | Participants with any TEAE, Any Grade (250 mg (N = 5)): 5 (100.0) n (%) | Participants with any TEAE, ≥ Grade 3 (250 mg (N = 5)): 1 (20.0) n (%) | Platelet count decreased, Any Grade (250 mg (N = 5)): 0 (0.0) n (%) | Platelet count decreased, ≥ Grade 3 (250 mg (N = 5)): 0 (0.0) n (%) | Proteinuria, Any Grade (250 mg (N = 5)): 0 (0.0) n (%) | Proteinuria, ≥ Grade 3 (250 mg (N = 5)): 0 (0.0) n (%) | Renal and urinary disorders, Any Grade (250 mg (N = 5)): 0 (0.0) n (%) | Renal and urinary disorders, ≥ Grade 3 (250 mg (N = 5)): 0 (0.0) n (%) | Subjects with any TEAE (250 mg (N = 5)): 5 (100.0) n (%) | Subjects with any drug-related TEAE (250 mg (N = 5)): 4 (80.0) n (%) | Vomiting, Any Grade (250 mg (N = 5)): 0 (0.0) n (%) | Vomiting, ≥ Grade 3 (250 mg (N = 5)): 0 (0.0) n (%) | White blood cell count decreased, Any Grade (250 mg (N = 5)): 2 (40.0) n (%) | White blood cell count decreased, ≥ Grade 3 (250 mg (N = 5)): 0 (0.0) n (%) | dose-limiting toxicities (DLTs) (250 mg cohort): none of the patients in the 250 mg cohort experiencing DLTs | Alanine aminotransferase increased, Any Grade (300 mg (N = 4)): 1 (25.0) n (%) | Alanine aminotransferase increased, ≥ Grade 3 (300 mg (N = 4)): 0 (0.0) n (%) | Anemia, Any Grade (300 mg (N = 4)): 0 (0.0) n (%) | Anemia, ≥ Grade 3 (300 mg (N = 4)): 0 (0.0) n (%) | Any TEAE: Grade 3 (300 mg (N = 4)): 3 (75.0) n (%) | Any TEAE: Leading to death (300 mg (N = 4)): 0 (0.0) n (%) | Any TEAE: Leading to dose reduction (300 mg (N = 4)): 3 (75.0) n (%) | Any TEAE: Leading to treatment discontinuation (300 mg (N = 4)): 1 (25.0) n (%) | Any TEAE: Leading to treatment interruption (300 mg (N = 4)): 3 (75.0) n (%) | Any TEAE: SAE (300 mg (N = 4)): 0 (0.0) n (%) | Aspartate aminotransferase increased, Any Grade (300 mg (N = 4)): 1 (25.0) n (%) | Aspartate aminotransferase increased, ≥ Grade 3 (300 mg (N = 4)): 0 (0.0) n (%) | Blood and lymphatic system disorders, Any Grade (300 mg (N = 4)): 0 (0.0) n (%) | Blood and lymphatic system disorders, ≥ Grade 3 (300 mg (N = 4)): 0 (0.0) n (%) | Blood bilirubin increased, Any Grade (300 mg (N = 4)): 0 (0.0) n (%) | Blood bilirubin increased, ≥ Grade 3 (300 mg (N = 4)): 0 (0.0) n (%) | Cardiac disorders, Any Grade (300 mg (N = 4)): 0 (0.0) n (%) | Cardiac disorders, ≥ Grade 3 (300 mg (N = 4)): 0 (0.0) n (%) | Constipation, Any Grade (300 mg (N = 4)): 1 (25.0) n (%) | Constipation, ≥ Grade 3 (300 mg (N = 4)): 0 (0.0) n (%) | Decreased appetite, Any Grade (300 mg (N = 4)): 3 (75.0) n (%)
